Data as given in the supplement of paper PMC10307832.

Key:
Assay in all cases: relative viability (nuclei count vs DMSO), 5 days (fraction); higher = more cells survive
[1] = compound: CC1=CC(=CC=C1)NC2=NC(=CS2)C3=CC=NC=C3 + Cc1cc(Nc2cc(N3CCN(C)CC3)nc(Sc3ccc(NC(=O)C4CC4)cc3)n2)n[nH]1 [Tozasertib] (partner 0.1 µM)
Method in brief: (§1)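 Relative viability is defined as nuclei in treated wells over nuclei in vehicle wells. Duplicate plates were run and medians reported. Lung cancer cell lines in 1536-well plates were dosed by pin tool one day after seeding, with one drug or with a fixed anchor-drug dose plus five library-drug doses (not always all listed) in √10 steps, and nuclei were counted after 5 days.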

[2] = compound: Cc1ccc(NC(=O)c2ccc(CN3CCN(C)CC3)cc2)cc1Nc1nc(-c2cccnc2)cs1 [Masitinib] + CC(C)C[C@H](NC(=O)[C@H](Cc1ccccc1)NC(=O)c1cnccn1)B(O)O [Bortezomib] (partner 0.002 µM)
Method in brief: as §1

[3] = compound: Cc1ccc(NC(=O)c2ccc(CN3CCN(C)CC3)cc2)cc1Nc1nc(-c2cccnc2)cs1 [Masitinib] + COc1cc2c(Oc3ccc(NC(=O)C4(C(=O)Nc5ccc(F)cc5)CC4)cc3F)ccnc2cc1OCCCN1CCOCC1 [Foretinib] (partner 0.25 µM)
Method in brief: as §1

[4] = compound: Cc1ccc(NC(=O)c2ccc(CN3CCN(C)CC3)cc2)cc1Nc1nc(-c2cccnc2)cs1 [Masitinib] + C[C@]1(O)C[C@@H](c2nc(-c3ccc4ccc(-c5ccccc5)nc4c3)c3c(N)nccn32)C1 [Linsitinib] (partner 1 µM)
Method in brief: as §1

Cell Line | relative viability ([1]; first compound 0.253 µM) | relative viability ([1]; first compound 0.8 µM) | relative viability ([1]; first compound 2.53 µM) | relative viability ([1]; first compound 8 µM) | relative viability ([2]; first compound 0.01 µM) | relative viability ([2]; first compound 0.03162 µM) | relative viability ([2]; first compound 0.1 µM) | relative viability ([2]; first compound 0.3162 µM) | relative viability ([2]; first compound 1 µM) | relative viability ([3]; first compound 0.01 µM) | relative viability ([3]; first compound 0.03162 µM) | relative viability ([3]; first compound 0.1 µM) | relative viability ([3]; first compound 0.3162 µM) | relative viability ([3]; first compound 1 µM) | relative viability ([4]; first compound 0.01 µM) | relative viability ([4]; first compound 0.03162 µM) | relative viability ([4]; first compound 0.1 µM) | relative viability ([4]; first compound 0.3162 µM) | relative viability ([4]; first compound 1 µM) | relative viability ([1]; first compound 0.08 µM)
HCC-78 | 0.402 | 0.365 | 0.405 | 0.391 | 0.49 | 0.419 | 0.515 | 0.406 | 0.394 | 0.554 | 0.551 | 0.548 | 0.521 | 0.451 | 0.417 | 0.423 | 0.55 | 0.557 | 0.486 | –
HCC-366 | 0.0811 | 0.081 | 0.0599 | 0.0456 | 1.04 | 0.905 | 1.08 | 1.01 | 1.14 | – | 0.933 | – | 0.961 | 0.998 | 0.728 | 0.521 | 0.841 | 0.753 | 0.55 | 0.126
HCC-827 | 0.392 | 0.45 | 0.409 | 0.391 | 0.842 | 1.04 | 1.03 | 1.09 | 1.08 | 1.03 | 1.05 | 1.06 | 1 | 1.06 | 1.03 | 0.969 | 0.976 | 0.935 | 0.935 | 0.415
HOP-62 | 0.381 | 0.363 | 0.41 | 0.421 | 0.573 | 0.598 | 0.845 | 0.799 | 0.769 | 1.02 | 1.04 | 1.22 | 1.17 | 1.14 | 0.916 | 0.978 | 0.973 | 0.917 | 0.833 | 0.378
IA-LM | – | – | – | – | 0.85 | 0.975 | 0.836 | 0.681 | 1.05 | 1.24 | 1.09 | 1.13 | 1.12 | 1.36 | 0.365 | 0.541 | 0.557 | 0.504 | 0.451 | –
LC-2-ad | – | 0.398 | 0.371 | 0.384 | 0.816 | 0.992 | 0.926 | 0.996 | 0.93 | 0.87 | 0.859 | 1.09 | 0.847 | 0.825 | 0.876 | 0.83 | 0.791 | 0.855 | 0.833 | 0.448
LCLC-97TM1 | 0.236 | 0.246 | 0.177 | 0.325 | 0.61 | – | 0.749 | 0.741 | 0.83 | – | 0.966 | 0.941 | 1.08 | 0.874 | 0.157 | 0.151 | 0.197 | 0.144 | 0.181 | 0.2
LK-2 | 0.175 | 0.173 | – | 0.184 | – | – | – | – | – | 1.19 | 1.3 | 1.4 | 1.13 | 1.22 | 0.511 | 0.573 | 0.618 | 0.649 | 0.812 | –
NCI-H358 | 0.116 | 0.11 | 0.118 | 0.101 | – | – | – | – | – | 0.769 | 0.81 | 0.784 | 0.625 | 0.591 | 0.86 | 0.877 | 0.715 | 0.809 | 0.623 | 0.112
NCI-H522 | 0.54 | 0.59 | 0.504 | 0.643 | – | – | – | – | – | – | – | – | – | – | – | – | – | – | – | 0.539
